Assay results: US20040142379A1, “Affinity fishing for ligands and proteins receptors” (Carlsberg Research Laboratory, priority 2003, published 2004)
Entries after “also recorded” stand apart in the source; their conditions may differ. Non-standard residues stand in square brackets, D forms with d. No end group written: not given here. Aze = O=C(O)[C@@H]1CCN1

These substances were tested on Normal Myocytes (basal) protein mixture (assay: Solid phase screening of Library 1 with labeled myocyte proteins; on-bead affinity isolation and peptide mass fingerprinting of bound protein (basal)). Details: proteins bound to resin-bound Library 1 ligand, primarily present in basal cells; LA low abundance, M transmembrane or partially embedded, MA membrane associated; parentheses = possible complexes.
Assay type: binding, neonatal Wistar rats
Protocol: Myocytes were prepared from 1 to 5 day old neonatal Wistar rats (University of Copenhagen) according to literature procedure described in Busk et al., 2002, Cardiovasc. Res., 56: 64-75 and plated into eight P10 culture plates at 6 million cells/plate. Cells were grown at 37° C. and 5% CO2 humidity in serum free Modified Eagle Media (MEM). After 2 days, the adherent cells were washed at room temperature with serum free MEM (2×) and fresh MEM was added. To four of the plates, 10 μM phenylephrine (PE) was also added. Cells were grown for two more days and then harvested as described below.
Protein was extracted from myocytes prepared as described above for Example 9, using a new procedure modified from existing protocols, primarily: Arnott, et al., 1998, Anal. Biochem. 258: 1-18. The media was removed from plates and adhered cells were treated for 10 minutes with ice cold phosphate buffer (0.25 mL, 10 mM, pH 7.5, augmented with 0.15 M NaCl 60 mM Benzamidine HCl, 5 mM EDTA, 10 μg/mL E-64, 10 μg/mL Leupeptin, 10 μg/mL Pepstatin A, and 1 mM PMSF). The cells were scraped off the plates and then lysed (on ice) in a sonicator (2×) using 10 seconds off/10 seconds on cycles.
The resulting suspension was augmented with CHAPS, DTT, and urea to a final concentration of CHAPS (1% w/v), DTT (5 mM), and urea (8 M). After 10-15 minutes on ice, the solution was centrifuged for 10 minutes at 15,000 rpm at 4° C. The supernatant was removed and protein content quantified using the NanoOrange Protein test (Molecular Probes, Eugene, Oreg.): Total protein recovered: 70.5 μg for PE-treated cells and 60 μg for basal cells.
Fluorescent dye Oregon Green 514 (OR) (Molecular Probes) was used to label the healthy/basal cells while Rhodamine Red (RR) (Molecular Probes) was used to label the PE-treated cells. The labeling procedures were carried out according to the manufacturer's protocol. The protein solutions (0.25 mL, 50.4 μg for PE cells and 0.25 mL, 42.8 μg for basal cells) were dialyzed against a solution of 10 mM phosphate buffer, 0.15 M NaCl, pH 7.5 and then 1 M NaHCO3 (0.025 mL) added to a final pH of 8.5. 10 μL of dye in dry DMF (10 mg/mL) was added and the sample stirred at room temperature for 2 hours. The protein solution was dialyzed extensively against 10 mM phosphate buffer, 0.15 M NaCl, pH 7.5, to remove excess dye.
Ligand library 1 (200 mg), prepared as described for Example 5, was transferred to a syringe fitted with a stop-valve and the ligand-beads were washed for 10 minutes (3×) with 10 mM phosphate buffer, pH 6.8, supplemented with 0.15 M NaCl, 1 mM Ca^2+, 1 mM Zn^2+, 1 mM Mn^2+, 1 mM Cu^2+, and 1 mM Mg^2+ (3 mL). The ligand-beads were treated with a 1% BSA solution for 30 minutes, then washed with buffer (1×). A mixture of labeled myocyte proteins, including both PE-induced protein (138 μL, 40 μg) and basal protein (167 μL, 40 μg) obtained as described above for Example 11, was prepared in 1.2 mL buffer, and added to the ligand library in the syringe. The proteins and ligand library were incubated at room temperature for 16 hours. The library was then washed with buffer for 5 minutes then with water for 3×5 minutes. The library was examined under a fluorescence microscope and brightly fluorescent red, green, and yellow beads (yellow indicative of both dyes red and green binding; the majority of the beads) were present, as well as unlabelled beads. The fluorescent beads were parted and retained for analysis.
The fluorescent ligand library beads containing bound myocyte protein obtained as described in Example 15, were sorted using a COPAS (250) NF Bead Sorter (Union Biometrica, Somerville, Mass.). Beads emitting fluorescence of only one color contain proteins from one physical state, proteins expressed only in the PE-induced hypertrophic state (red) or proteins expressed only in the basal state (green).

Substance	Identified Protein(s)
F[Aze]GHG[Aze]	Hypothetical proteins; Cysteine and tyrosine rich proteins of unknown; also recorded: function (M); (Mitochondrial ATP synthase; Ribosomal proteins (L; also recorded: series);) Serine protease; SPTR
Phe-Ppy-Acc-Ala-Ppy-Hpy	Hypothetical proteins; Troponin T; (Phospholipase C (MA);; also recorded: Phosphatidylcholine sterol acyl transferase)

The substances below were run on E. coli membrane proteins (assay: Solid phase screening of Library 2 with E. coli membrane proteins; on-bead tryptic digest and protein identification). Details: proteins bound to resin-bound Library 2 ligand; LA low abundance, M inner or outer membrane, P periplasmic space.
Assay type: binding, Escherichia coli DH 5α-136
Protocol: A 400 mL culture of Escherichia coli DH 5α-136 (Carlsberg Research Center Collection) was prepared according to the procedures described in Hanahan, 1985, In: DNA Cloning, Vol 1, Glover, D., ed., IRL Press Ltd, pp. 109-135. Cells were grown from innocula in LB media at 37° C. for 5 to 6 hours and harvested in the latter log phase at an optical density of 0.8 (600 nm) by centrifugation (10,000 rpm for 10 minutes at 4° C.). The media containing extracellular protein was retained and the pellet washed once with PBS, pH 7.6 (cellular weight=2.22 g).
Isolation of E. coli membrane proteins was achieved through modification of published literature procedures: Auer, et al., 2001, Biochemistry, 40:6628-6635, and Molloy, et al., 2000, Eur. J. Biochem. 267:2871-2881. After incubation of E. coli cells for 2 days, washed cells were scraped from plates and centrifuged as described above for Example 10. The cell pellet (approximately 1 g) was suspended in 50 mM Tris HCl, pH 7.5 and pressed (2×) in a French Press at 1500 Psi. The resulting suspension was centrifuged at 2500×g for 10 minutes. The ice cold supernatant was diluted with 2.5 ml of ice-cold 0.1 M sodium carbonate buffer 11 and the solution stirred on ice for 1 hour. Ultracentrifugation was then carried out at 115, 000×g for 1 to 1.5 hours at 4° C., yielding Pellet 1 and Supernatant 1. The membrane pellet 1 was resuspended in 50 mM Tris HCl, pH 7.5 and the pellet was recollected after centrifugation for an additional 20 minutes at 115,000×g, yielding Pellet 2 and supernatant 2. Pellet 2 was solubilized in 50 mM Tris HCl, pH 7.5 containing 10 mM imidazole, 0.5 mM PMSF, 20% glycerol, and 1% Dodecyl Maltoside (DDM) or 33 mM Octyl Glucoside (OG) for 30 minutes at 4° C. The suspension was then centrifuged for 10,000 g for 30 minutes. The pellet and supernatant obtained were labeled Pellet 3 and supernatant 3.
Protein content was determined by checking the absorbance of the protein at 280 nm. The protein concentration in the DDM sample was 0.93 mg/mL, while in the OG sample 0.07 mg/mL protein was obtained.
The protein was labeled with amino reactive succinylanthranilate dye (blue) DDM (0.49 mg dye) and OG (0.03 mg dye) according to the same protocol used in the extracellular labeling described above for Example 12. The labeling stopping reaction (hydroxylamine hydrochloride addition) was not used in this case, to avoid dilution of the protein. The mixture was dialyzed overnight against 10 mM PBS buffer, pH 6.8 containing 0.01 mM ZnCl2, 0.01 mM CaCl2, 0.01 mM MnCl2, and 0.01 mM MnSO4, against a three time buffer change.
The ligand library was then washed, and E. coli labeled membrane protein, prepared as described above for Example 13, was added (0.1 ml). The ligand library and protein mixture was incubated overnight at room temperature.
A typical analysis employed 100-300 laser shots.
Beads containing 40 different specific ligands that bind E. coli protein, the binding ligands isolated by the process described for Example 16 and identified as described for Example 19, were placed into 40 wells of a Multiwell filter plate (Multiscreen DV plates, Millipore). Control beads containing PEGA4000 resin plus the spacer and linker with no ligand compound were used. The binding of unlabeled E. coli proteins was carried out in duplicate. The ligand beads were washed with Millipore water for 3×5 minutes and then with 10 mM PBS buffer (as described for Example 15) for 3×5 minutes under vacuum. Unlabeled E. coli protein, produced as described for Example 13, (400 μg) was added to each well and incubated at room temperature overnight. The next day, the unbound protein solution from each well was removed under suction and the beads were washed with Millipore water and buffer respectively for 3×5 minutes under vacuum.
Protein was cleared from beads containing protein-ligand binding “positive hits” isolated as described for Examples 21 (myocyte proteins) and 22 (E. coli proteins). […]

Substance	Identified Protein(s)
T(Sa)-F-A-L-V	Chaperone DnaK, putative hydrolase, transposase
T(Sa)-F-G-I-M	Transposase, transcriptional regulator (LA), GroEL, protein involved in the taurine; also recorded: transport system (M)
T(Sa)-F-G-I-W	Histidine synthetase, aspartate carbamoyl transferase, protein involved in permease; also recorded: transport system (M)
T(Sa)-F-G-L-M	Hemolysin C, high affinity potassium transport system (M), quinone oxidoreductase; also recorded: (M), ferrodoxin dependent NA(D)PH oxidoreductase (M)
T(Sa)-F-N-H-S	Phosphate acetyl transferase, acid shock protein, molybdopterin converting factor; also recorded: subunit
T(Sa)-F-V-W-H	NADH dehydrogenase (M), protein involved in flagellar biosynthesis and motor; also recorded: switching component (M); also recorded: Lysine-arginine-ornithine-binding protein (P), ATP-binding component of glycine-; also recorded: betaine-proline transport protein (P)
T(Sa)-G-V-F-L	50 S ribosomal protein, heme binding lipoprotein (M), regulator for D-glucarate, D- and glycerate and D-galactarate, glutamine tRNA synthetase
T(Sa)-H-I-G-Y	Fimbrial subunit, outer membrane pyruvate kinase (LA, M)
T(Sa)-H-L-G-Y	Protein involved in lipopolysaccharide biosynthesis (M), phosphomannose isomerase
T(Sa)-H-W-H-I	Mannose-1-phosphate guanyl transferase, isopropyl malate dehydrogenase (M)
T(Sa)-H-W-H-L	Chorismate mutase, xanthine dehydrogenase, carbamoyl phosphate synthetase
T(Sa)-H-W-V-V	Pyruvoyl dependent aspartate decarboxylase, colicin E2, Histidine kinase (M)
T(Sa)-I-Y-L-F	Membrane bound ATP synthetase (M), ATP hydrolase
T(Sa)-L-S-W-W	NAD-dependent 7-alpha-hydroxysteriod dehydrogenase, homocysteine transferase,; also recorded: nitrate reductase (P), lactate dehydrogenase, citrate synthetase
T(Sa)-L-Y-I-F	Colicin, hypothetical membrane protein (M) outer membrane lipoprotein (M),; also recorded: arylsulfatase
T(Sa)-L-Y-L-F	Fimbrial protein precursor, alkaline phosphatase (P), cytochrome related proteins (P),
T(Sa)-M-V-N-W	ATP dependent helicase, mob C
T(Sa)-W-V-N-M	Transposase, inner membrane protein for phage attachment (M)
T(Sa)-Y-S-M-P	Biotin synthetase, UDP-glucose dehydrogenase, tyrosine protein kinase (LA), fatty; also recorded: acid oxidase complex proteins

Each substance was assayed on six protein mixture: Con A, P. sativum lectin, L. culinaris lectin, W. floribunda lectin, Glyceraldehyde 6-phosphate, and bovine serum albumin (BSA) (assay: not given). Details: proteins eluted from ligand on PEGA6000 resin with 0.5 M mannose and/or N-acetylglucosamine.
Protocol: The ligand-resin was washed with 10 mM PBS buffer, pH 6.8 containing 1 mM CaCl2 and 1 mM MnCl2. A mixture of unlabelled proteins, Glycerol-3-phosphate: BSA: Wisteria floribunda: Lens culinaris: Pisatum sativum in a […] weight ratio was dissolved in 10 mM PBS buffer, pH 6.8 containing 1 mM CaCl2 and 1 mM MnCl2 The protein mix (3.5 mL, ca. 1.2 mg protein) was applied to each ligand column and allowed to bind overnight. The column was washed with the same buffer until no more protein was eluted (Abs 280 nm). Bound protein was eluted from the column using 0.5M mannose in 10 mM PBS buffer, pH 8.0 containing CaCl2 and 1 mM MnCl2 (buffer filtered to remove CaOH2 formed) for glycopeptides containing only mannose, 0.5 M N-acetylglucosamine in 10 […] mM PBS buffer, pH 8.0 containing CaCl2 and 1 mM MnCl2 (buffer filtered to remove CaOH2 formed) for glycopeptides containing only GlcNAc, and both buffers for glycopeptides containing both mannose and GlcNAc, or for unglycosylated peptides. Samples were obtained in about 700 μL volume and frozen for later protein identification.

Substance	Identified Protein(s)
GPKKYH	Con A, P. sativum lectin,; also recorded: L. culinaris lectin
GlcNN-Trp-Phe-Asp-Trp-Pro	Con A
GlcNN-Val-GlcNN-His-ManS-Gly	Con A, P. sativum lectin
ManN-ManS-ManN-Trp-Ser-Trp	Con A, P. sativum lectin,; also recorded: L. culinaris lectin
ManN-Phe-Trp-Ser-Lys-His	Con A, P. sativum lectin
ManS-GIy-GlcNN-Asn-ManS-Tyr	Con A, P. sativum lectin,; also recorded: L. culinaris lectin
ManS-Gly-ManS-Asp-Asn-Ala	Con A, P. sativum lectin
